Laboratory results taken from US20090111894A1, “Method of Preventing Microbial Growth” (priority 2005, published 2009).

Assays:
Format in all cases: cell-based
[1] = tested on: Moulds; assay: Reduction of organisms in corrugated board pulp; conditions: pulp at 20° C.
Protocol: (§1) Contamination with moulds and bacteria is known to be serious problem for corrugated board. Hydroxyacetaldehyde was added to the corrugated board pulp during production to determine if it would be possible to produce a mould-free corrugated board.
(§2) To 40 gram of small pieces of cut corrugated board 300 ml of sterile water was added. This was mixed to form a pulp. This pulp was divided into 3 portions to which 0, 0.5 and 2% hydroxyacetaldehyde was added. The pulp was incubated at 20° C. and after 0, 2, 5 and 22 hours the number of organisms per gram pulp was measured. The reduction factor (cfu at to/cfu at tn) was as follows: […]

[2] = tested on: Bacteria; assay: Reduction of organisms in corrugated board pulp; conditions: pulp at 20° C.
Protocol: as §1, §2

[3] = tested on: Zygosaccharomyces bailii; assay: Inhibition effect in Ice Tea (MIC); conditions: Lipton Ice Tea with apple juice, 25° C.
Protocol: (§3) The inhibition effect of Hydroxyacetaldehyde was tested in Ice Tea at various concentrations, at 2 different pH's and against 2 micro-organisms at 25° C. Tested were: • Zygosaccharomyces bailii • Talaromyces trachyspermus
(§4) The medium was Lipton Ice Tea with apple juice. The pH of the medium was set at 4.5 and 6.0, respectively. Hydroxyacetaldehyde concentrations were: 0, 0.0125, 0.025, 0.05, 0.1, 0.2, 0.4 and 0.8%. Growth was recorded by an automated optical density reader NEPHELOstar Galaxy of the manufacturer BMG. The MIC (Minimal Inhibition Concentration) for the different micro-organisms were: […]

[4] = tested on: Talaromyces trachyspermus; assay: Inhibition effect in Ice Tea (MIC); conditions: Lipton Ice Tea with apple juice, 25° C.
Protocol: as §3, §4

[5] = tested on: Candida parapsilosis; assay: Inhibition effect in model media (MIC), optical density growth reading; conditions: 30° C., weight/volume
[6] = tested on: Echerichia coli; assay: as above; conditions: BHI, 30° C., weight/volume
Protocol: (§5) The inhibition effect of Hydroxyacetaldehyde was tested in model media at various concentration levels and at 3 different pH's and against various micro-organisms at 30° C.
(§6) The medium was Brain Heart Infusion Broth (BHI) or Malt Water. Tested were: • Bacillus subtilus in BHI • Echerichia coli in BHI • Staphylococcus aureus in BHI • Saccharomyces cerevisieae in Malt water • Penicillium crustosum in Malt water
(§7) The pH of the media was set in the medium to 4.5 5.0 and 6.0, respectively. Hydroxyacetaldehyde concentrations were: 0, 0.0125, 0.025, 0.05, 0.1, 0.2, and 0.4%. Growth was recorded by an automated Optical Density reader (NEPHELOstar Galaxy of the manufacturer BMG).

[7] = tested on: Staphylococcus aureus; assay: as above; conditions: BHI, 30° C., weight/volume
Protocol: as §5, §6, §7

[8] = tested on: Penicillium crustosum; assay: as above; conditions: Malt water, 30° C., weight/volume
Protocol: as §5, §6, §7

[9] = tested on: Bacillus subtilus; assay: as above; conditions: BHI, 30° C., weight/volume
Protocol: as §5, §6, §7

[10] = 0.5 hydroxyacetaldehyde, incubation 2 hours
[11] = 0.5 hydroxyacetaldehyde, incubation 5 hours
[12] = 0.5 hydroxyacetaldehyde, incubation 22 hours
[13] = 2% hydroxyacetaldehyde, incubation 2 hours
[14] = 2% hydroxyacetaldehyde, incubation 5 hours
[15] = 2% hydroxyacetaldehyde, incubation 22 hours

O=CCO [Hydroxyacetaldehyde]
reduction factor (cfu at to/cfu at tn) [1, 10]: 20
reduction factor (cfu at to/cfu at tn) [1, 11]: 40
reduction factor (cfu at to/cfu at tn) [1, 12]: >40
reduction factor (cfu at to/cfu at tn) [1, 13]: >40
reduction factor (cfu at to/cfu at tn) [1, 14]: >40
reduction factor (cfu at to/cfu at tn) [1, 15]: >40
reduction factor (cfu at to/cfu at tn) [2, 10]: 3.8
reduction factor (cfu at to/cfu at tn) [2, 11]: 4.1
reduction factor (cfu at to/cfu at tn) [2, 12]: 25.5
reduction factor (cfu at to/cfu at tn) [2, 13]: 7.4
reduction factor (cfu at to/cfu at tn) [2, 14]: 26.4
reduction factor (cfu at to/cfu at tn) [2, 15]: >1.4e4
MIC (Minimal Inhibition Concentration) ([3]; pH 4.5): 0.8%
MIC (Minimal Inhibition Concentration) ([3]; pH 6): 0.8%
MIC (Minimal Inhibition Concentration) ([4]; pH 4.5): 0.1%
MIC (Minimal Inhibition Concentration) ([4]; pH 6): 0.1%
MIC (Minimal Inhibition Concentration) ([5]; pH 4.5): 0.2%
MIC (Minimal Inhibition Concentration) ([5]; pH 6): 0.2%
MIC (Minimal Inhibition Concentration) ([6]; pH 4.5): 0.1%
MIC (Minimal Inhibition Concentration) ([6]; pH 5): 0.1%
MIC (Minimal Inhibition Concentration) ([6]; pH 6): 0.1%
MIC (Minimal Inhibition Concentration) ([7]; pH 4.5): 0.05%
MIC (Minimal Inhibition Concentration) ([7]; pH 5): 0.05%
MIC (Minimal Inhibition Concentration) ([7]; pH 6): 0.05%
MIC (Minimal Inhibition Concentration) ([8]; pH 4.5): 0.1%
MIC (Minimal Inhibition Concentration) ([8]; pH 6): 0.1%
MIC (Minimal Inhibition Concentration) ([9]; pH 4.5): 0.1%
MIC (Minimal Inhibition Concentration) ([9]; pH 5): 0.1%
MIC (Minimal Inhibition Concentration) ([9]; pH 6): 0.1%
